These results are taken from patent US20260242440A1, “NOVEL MEANS TO MODULATE NMDA RECEPTOR-MEDIATED TOXICITY” (FUNDAMENTAL PHARMA GMBH, priority 2018, published 2026).

Assay [1] concerns primary mouse hippocampal neurons. Put plainly: NMDA induced cell death (excitotoxicity) in cultured primary neurons. It is filed as cell-based. Conditions: polypeptide expressed via rAAV infection on DIV3; NMDA 20 μM for 10 min; cell death assessed 24 h later. How it is done:
Primary mouse hippocampal and cortical neurons were prepared and maintained as known. Briefly, hippocampi or cerebral cortex from P0 C57Bl/6NCrl mice were dissociated and plated at a density of 1.2*105/cm^2 in Growth Medium (GM), consisting of Neurobasal A medium (Gibco™, 10888022), 2% serum free B27™ Supplement (Gibco™, 17504044), 1% rat serum (Biowest, S2150), 0.5 mM L-Glutamine (Sigma, G7513) and 0.5% P-S. Cytosine β-D-arabinofuranoside (AraC; Sigma, C1768; 2.8 μM) was added on DIV3 to prevent the proliferation of glial cells. From DIV8, half of the medium was replaced by GM without Rat serum every 48 h until being used for experiments. 24 h before experiments, GM was replaced with transfection medium (10 mM HEPES, pH 7.4, 114 mM NaCl, 26.1 mM NaHCO3, 5.3 mM KCl, 1 mM MgCl2, 2 mM CaCl2, 30 mM glucose, 1 mM glycine, 0.5 mM C3H3NaO3, and 0.001% phenol red and 10% of phosphate-free Eagle's minimum essential medium, supplemented with 7.5 µg/ml insulin, 7.5 µg/ml transferrin and 7.5 ng/ml sodium selenite (ITS Liquid Media Supplement, Sigma-Aldrich Cat #I3146)). Primary hippocampal neurons were used in live cell imaging, cell death experiments, while cortical neurons were used for mRNA and protein extraction analysis.
All viral particles were produced and purified as known in the art. All TRPM4 derived peptides (comprising SEQ ID NO:5, or any of SEQ ID NO:46 to SEQ ID NO:56) were cloned into rAAV backbone by PCR. shRNA against mouse TRPM4 were designed by BLOCK-iT™ RNAi Designer from Thermofisher to target: […] (SEQ ID NO:44, shTRPM4-1) and […] (SEQ ID NO:45, shTRPM4-2). Scramble shRNA (shSCR) has been tested and proven to have no known targets in mice. GPI anchor ([…], e.g. used in SEQ ID NO:53) sequences were synthesized by Eurofins Genomics (Ebersberg, Germany). All primers were synthesized and all plasmids were confirmed by sequencing by Eurofins Genomics.
In order to investigate the role of TRPM4 in NMDA receptor mediated excitotoxicity, the inventors used RNA interference strategies to knock down TRPM4. Cultured primary mouse hippocampus neurons were infected on day 3 in vitro (DIV3) with recombinant adeno-associated viruses (rAAVs) providing for expression of a scramble control (shSCR), shTRPM4-1 (SEQ ID NO:44) or shTRPM4-2 (SEQ ID NO:45). On DIV15-16, neurons were challenged with N-methyl-D-aspartate (NMDA, 20 μM) for 10 min. After NMDA wash out, neurons were kept in the culture medium for another 24 h before analysis. […] Evidently, TRPM4 is thus involved in the process of NMDA receptor mediated excitotoxicity.
In a next step, the inventors tried to identify regions in the mouse TRPM4 protein potentially involved in NMDA receptor mediated excitotoxicity. For this purpose, polypeptide fragments of mouse TRPM4 protein were generated and their impact on NMDA induced excitotoxicity analysed. To do so, primary neuron cultures were infected with respective rAAVs on DIV3, challenged with NMDA (20 μM) for 10 min on DIV17 and cell death assessed 24 hours later.
The sequence of SEQ ID NO:5 in TRPM4 is located in vivo just beneath the plasma membrane. […] To test this hypothesis, the inventors created a fusion protein comprising SEQ ID NO:5 and a GPI anchor, SEQ ID NO:57. The sequence of the fusion is given in SEQ ID NO:53. Neurons infected with rAAV and expressing SEQ ID NO:47 (control) or SEQ ID NO:53 were exposed to NMDA (20 μM) for 10 min on DIV15-16, with cell death assessed after 24 h.
In a next step, the inventors created a mutant of SEQ ID NO:5, in which two adjacent phenylalanine residues where substituted by tyrosine residues (SEQ ID NO: 54). […] TRPM5 is a protein related to but nonetheless distinct to TRPM4. The region in TRPM5 corresponding to SEQ ID NO:5, SEQ ID NO:55, shares only about 60% sequence identity with SEQ ID NO:5. Neurons were infected on DIV3 with rAAVs expressing SEQ ID NO: 5, SEQ ID NO: 54 or SEQ ID NO:55 and exposed to NMDA (20 μM) for 10 min on DIV17, with cell death assessed 24 h later. […]

Assay [2] has the same test system. Description: NMDA receptor induced mitochondrial membrane potential breakdown (Rh123 imaging). It is filed as cell-based. How it is done:
Coverslips with primary cultured neurons (DIV15-DIV17) were used to examine mitochondrial membrane potential (Ψm) and mitochondrial calcium signalling, which was performed at room temperature in CO2-independent culture medium (CICM) containing: 10 mM HEPES, 140 mM NaCl, 2.5 mM KCl, 1.0 mM MgCl2, 2.0 mM CaCl2, 1.0 mM Glycine, 35.6 mM Glucose and 0.5 mM Na-pyruvate. All images were obtained by a cooled-CCD camera (iXon 887, Andor) on an upright microscope (BX51WI, Olympus). Fluorescence excitation was provided by a xenon arc lamp in combination with an excitation filter wheel (MT-20, Olympus). Data were collected using Cell^R software (Olympus), analysed using ImageJ and quantified using Igor Pro (WaveMetrics). Ψm was detected with the small molecule fluorescence indicator Rhodamine 123 (Rh123; Molecular Probe™, R302). Primary cultured neurons were loaded with 4.3 μM Rh123 in CICM at 37° C. for 30 min, then washed and left in CICM for another 30 min before recording. At the end of each experiment, the mitochondrial uncoupler FCCP (5 μM, Sigma-Aldrich, Cat #C2920) was applied to the cells to reach the maximal Rh123 fluorescence intensity. Rh123 was imaged with 470±20 nm excitation and 525±25 nm emission wavelengths using a 20× objective. Rh123 fluorescence intensity was measured in the nucleus to minimize contamination from cytosolic mitochondrial signal and Rh123 fluorescence intensity was normalized to the maximum FCCP signal for each region of interest.
Mitochondrial dysfunction is a hallmark of NMDA receptor excitotoxicity and an early event en-route to neuronal death. A parameter that is often used to assess mitochondrial integrity is the mitochondrial membrane potential. A breakdown of the mitochondrial membrane potential can be observed after exposure of hippocampal or cortical neurons to NMDA and indicates excitotoxicity-associated mitochondrial dysfunction. Therefore, the inventors investigated the effect of polypeptides comprising the sequence of SEQ ID NO:5 or SEQ ID NO: 54 as well as of the control TRMP5 sequence (SEQ ID NO: 55) on mitochondrial membrane potential break down in primary mouse hippocampal neurons. Excitotoxicity leading to mitochondrial membrane potential break down was induced with bath application of 20 μM NMDA. After 11 minutes, the mitochondrial uncoupler, carbonylcyanide-p-trifluoromethoxyphenylhydrazone (FCCP) was added. Addition of FCCP leads to break-down of the mitochondrial membrane potential and served as a control of the test system.

The test system of assay [3] is synaptic NMDA receptor. Put plainly: Gabazine induced calcium influx into mitochondria (synaptic NMDA receptor signalling). Format: cell-based, mouse. The conditions noted are these: primary cultured neurons, polypeptides expressed via rAAV. The method, then: Gabazine induced mitochondrial Ca^2+ response in primary cultured neurons is recorded and analysed as described in a previous study (Qiu et al, Nat Commun. 2013; 4:2034, incorporated herewith by reference) using a FRET calcium indicator 4mtD3cpv that specifically located to mitochondria. Briefly, mitochondrial Ca^2+ levels were detected with FRET-based and mitochondrial targeted Ca^2+ indicator 4mtD3cpv. 4mtD3cpv were excited at 430±12 nm (CFP) and 500±10 nm (YFP), and emission of CFP (470±12 nm) and YFP (535±15 nm) were separated and filtered using a DualView beam splitter (AHF Analysentechnik and MAG Biosystems), and all fluorescence images were recorded through a 20× water-immersion objective at 1 Hz.
In a further experiment the inventors assessed the impact of the polypeptide comprising the sequence of SEQ ID NO:5 and SEQ ID NO: 54, respectively, on Gabazine induced calcium influx (mitochondria), a measure of synaptic NMDA receptor signalling. The experiment was carried out in primary cultured neurons as described above.

In assay [4] the test system is HEK293 cells. Description: Luminescent cytotoxicity assay, HEK293 cells transfected with GRIN1 and GRIN2A or GRIN2B. Format: cell-based, human. Conditions: compound added 6 h after transfection; cell death 48 h after transfection. How it is done:
HEK293 cells were cultured in Dulbecco's Modified Eagle Medium (DMEM, Gibco™ 41965-039) supplement with 10% Fetal Bovine Serum (FBS, Gibco™, 10270), 1% Sodium Pyruvate (Gibco™, 11360070), 1% MEM NEAA (GibcoT^M, 11140035) and 0.5% Penicillin-Streptomycin (P-S; Sigma, P0781) and Passagel5-25 were used for experiments.
To test the cytotoxicity of compounds according to the present invention, HEK293 cells (70-80% confluent) were transfected 24 hours after plating with both GRIN1 and GRIN2 Å or GRIN2B, respectively (1:[…]) with Lipofectamine 2000 according to manufacturer's instructions. The relative number of dead cells in the population at the indicated time points after transfection was measured with the CytoTox-Glo™ Cytotoxicity assay (Promega, G9290) according to manufacturer's instruction with minor modification. Briefly, 10% of total medium were mixed with 10 μL AAF-amino luciferin to reach a final volume at 200 μL with water, the dead cell relative luminescence units (DRLU) was measured by GloMax (Promega) in a 96 well white bottom polystyrene microplate (Corning Costar®, 3912). After all the measurements, lysis reagents have been added to the cells and 10% of lysate was used for the total cell relative luminescence units (TRLU) measurement. Cell death was calculated by the following equations: […]
For drug testing, P4, P8, P9, P13 and P15 were added to the medium at indicated concentration 6 h after transfection. DRLU, TRLU and cell death were measured and calculated 48 h after transfection.

Assay [5] relates to NMDA receptor. Description: NMDA-induced calcium transients (Fura2 calcium imaging). It is filed as cell-based, mouse. The conditions noted are these: hippocampal neurons, 6 min NMDA (20 μM) application. How it is done: In a further experiment, the impact of P4 and P15 on NMDA-induced calcium transients was assessed. Briefly, for calcium imaging, primary hippocampal neurons on coverslips were loaded with the cell-permeable, high-affinity ratiometric calcium indicator Fura2-AM (Invitrogen™ F1221), at 1 μM in CO2-independent culture medium (CICM; CICM contains: 10 mM HEPES, 140 mM NaCl, 2.5 mM KCl, 1.0 mM MgCl2, 2.0 mM CaCl2, 1.0 mM Glycine, 35.6 mM Glucose and 0.5 mM Na-pyruvate) for 30 min at 37° C., then washed and left in CICM for another 30 min to allow for de-esterification. Fura2 was excited at 340/11 nm and 380/11 nm, and fluorescence emission was obtained from a 40× UV compatible objective (LUMPLFLN, Olympus) through a 510/20 nm emission filter. For quantification, ImageJ was used to calculate average background-subtracted fluorescence intensities for 340 and 380 nm excitation (F340 and F380) from each neuron. Intracellular calcium levels were plotted as F340/F380 ratios over time, from which the NMDA response amplitude and area under the curve (AUC) was calculated to quantify NMDA-induced calcium influx.

Assay [6] deals with T1, TRPM4 channel (Homo sapiens, UniProt Q8TD43).
T1 construct: PC3 cells are known to express TRPM4 channels; endogenous in cells; host or cells: PC3 prostate cancer cell line
Description: TRPM4 channel function, whole-cell patch clamp in PC3 cells. Conditions: 10 μM compound, pre-incubated 30-60 min. Format: cell-based. From the text: To assess any direct impact of compound P4 and compound P15 on TRPM4 channel function independent of NMDA receptors, the inventors used the prostate cancer cell line PC3 and patch clamp recordings. PC3 cells are known to express TRPM4 channels (C. Holzmann et al., Oncotarget. 6, 41783-93 (2015)). TRPM4 currents in turn are characterized by their calcium dependence and outward rectification (P. Launay et al., Cell. 109, 397-407 (2002)). Briefly, whole-cell patch clamp recordings were made from PC3 cells plated on 12 mm round coverslips secured with a platinum ring in a recording chamber (OAC-1, Science Products GmbH) mounted on a fixed-stage upright microscope (BX51WI, Olympus). […] Patch electrodes (3-4 MΩ) were made from 1.5 mm borosilicate glass and filled with cesium-based solutions (in mM: CsCl, 145; NaCl, 8; HEPES, 10; MgCl2, 1; plus either EGTA, 0.2 for a free Ca^2+ concentration of zero; or EGTA, 10 and CaCl2), 9.4 for a calculated free Ca^2+ concentration of 10 μM; Maxchelator, Stanford University). Recordings were made with a Multiclamp 700B amplifier, digitized through a Digidata 1550B and acquired and analyzed using pClamp 10 software (Molecular Devices). Access resistance (range: 10-20 MΩ) was monitored regularly during voltage clamp recordings and data was rejected if changes greater than 20% occurred.

Entries after “also recorded” stand apart in the source; their conditions may differ.

T1 sequence (Q8TD43 whole entry): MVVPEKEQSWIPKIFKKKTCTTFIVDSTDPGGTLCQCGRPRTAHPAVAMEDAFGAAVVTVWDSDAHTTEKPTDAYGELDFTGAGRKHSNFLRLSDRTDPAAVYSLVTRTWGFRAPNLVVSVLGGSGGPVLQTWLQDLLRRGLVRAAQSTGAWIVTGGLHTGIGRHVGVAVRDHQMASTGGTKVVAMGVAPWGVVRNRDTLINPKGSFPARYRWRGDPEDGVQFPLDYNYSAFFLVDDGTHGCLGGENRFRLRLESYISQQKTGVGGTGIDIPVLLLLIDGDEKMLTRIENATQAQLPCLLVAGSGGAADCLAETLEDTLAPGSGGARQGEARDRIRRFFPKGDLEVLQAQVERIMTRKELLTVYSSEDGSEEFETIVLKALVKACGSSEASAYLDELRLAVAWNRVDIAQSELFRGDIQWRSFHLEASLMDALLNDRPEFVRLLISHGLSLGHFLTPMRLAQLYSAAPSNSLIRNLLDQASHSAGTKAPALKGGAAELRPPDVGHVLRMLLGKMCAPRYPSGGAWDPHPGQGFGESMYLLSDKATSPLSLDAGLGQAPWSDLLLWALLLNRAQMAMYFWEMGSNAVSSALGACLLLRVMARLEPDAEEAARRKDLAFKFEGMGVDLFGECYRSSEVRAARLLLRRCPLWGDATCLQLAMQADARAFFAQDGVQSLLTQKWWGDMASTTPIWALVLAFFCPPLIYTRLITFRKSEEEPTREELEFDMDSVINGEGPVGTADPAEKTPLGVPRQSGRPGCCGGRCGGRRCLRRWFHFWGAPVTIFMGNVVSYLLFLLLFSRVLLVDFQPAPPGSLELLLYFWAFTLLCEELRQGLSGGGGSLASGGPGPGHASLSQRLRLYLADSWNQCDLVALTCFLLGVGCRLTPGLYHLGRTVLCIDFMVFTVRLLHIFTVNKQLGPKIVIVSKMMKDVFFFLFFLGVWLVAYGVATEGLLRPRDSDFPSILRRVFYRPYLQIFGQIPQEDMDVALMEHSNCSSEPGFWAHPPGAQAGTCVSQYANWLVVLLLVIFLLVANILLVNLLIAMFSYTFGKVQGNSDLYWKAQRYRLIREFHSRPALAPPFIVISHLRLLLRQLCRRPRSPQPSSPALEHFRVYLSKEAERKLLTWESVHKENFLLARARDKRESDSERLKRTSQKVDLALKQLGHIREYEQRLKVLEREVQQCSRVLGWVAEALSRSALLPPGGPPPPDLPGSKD

“SEQ ID NO:54: derivative of SEQ ID NO:5, having a conservative substitution of two Y for two F (NSEERAARLLLRRCPLWGEATCLQLAMQADARAYYAQDGVQSLLTQKWWGEMDSTTP; Mutant of SEQ ID NO:5 with F34Y and F35Y)”: in assay [1], the “protection against NMDA induced cell death (neuroprotective effect)” value was “only slightly less effective in reducing NMDA receptor-mediated cell toxicity than SEQ ID NO:5”. Besides, the “NMDA receptor induced mitochondrial membrane potential breakdown” value in assay [2] (polypeptides expressed via rAAV, bath application of 20 μM NMDA) is reported as “capable of preventing NMDA receptor induced mitochondrial membrane potential breakdown”. The “Gabazine induced calcium influx into mitochondria” value in assay [3] is given as “neither of these polypeptides affects synaptic NMDA receptor signalling; also recorded: not affected”.
On to `NCC1CCN(CC(=O)Nc2cc(Cl)c(Cl)cc2Cl)C1` (stereo not shown) [P15], for which, in assay [2] (compound applied 30 min prior to recording, bath application of NMDA), the “protection of mitochondrial membrane potential from NMDA excitotoxicity” value is given as “significantly protect mitochondrial membrane potential from NMDA excitotoxicity”. Moreover, the “NMDA receptor induced cell death” value in assay [4] is on record as “reduced the level of NMDA receptor induced cell death”. Further, the NMDA-induced calcium transients result in assay [5] is “neither compound P4 nor compound P15 reduced; also recorded: neither compound P4 nor P15 reduced”. Besides, in assay [6], the “TRPM4-like outwardly rectifying current activated by 10 μM Ca2+” value is recorded as “not affected”.
